Laboratory results taken from patent US20260234295A1, “ULTRALOW MOLECULAR WEIGHT HEPARIN” (The University of North Carolina at Chapel Hill, priority 2022, published 2026).
Several values for one entry are separate records, joined by “and”; a condition that tells them apart may be missing. Equal values may be shown once.

Assays:
Human FXa (Homo sapiens) = system: T1, Human FXa (Homo sapiens); experiment: Anti-FXa activity, chromogenic substrate S-2765 with antithrombin; assay type: biochemical; conditions: for anti-FXa activity after incubation with heparanase: after heparanase digestion, digested byproduct; for IC50: human FXa, antithrombin, S-2765, read-out: anti-FXa activity, calculated IC50 (converted)
T1 construct: Human FXa (Enzyme Research Laboratories, South Bend, Indiana, United States of America); purchased Enzyme Research Laboratories
T1 sequence (P01008 33-464): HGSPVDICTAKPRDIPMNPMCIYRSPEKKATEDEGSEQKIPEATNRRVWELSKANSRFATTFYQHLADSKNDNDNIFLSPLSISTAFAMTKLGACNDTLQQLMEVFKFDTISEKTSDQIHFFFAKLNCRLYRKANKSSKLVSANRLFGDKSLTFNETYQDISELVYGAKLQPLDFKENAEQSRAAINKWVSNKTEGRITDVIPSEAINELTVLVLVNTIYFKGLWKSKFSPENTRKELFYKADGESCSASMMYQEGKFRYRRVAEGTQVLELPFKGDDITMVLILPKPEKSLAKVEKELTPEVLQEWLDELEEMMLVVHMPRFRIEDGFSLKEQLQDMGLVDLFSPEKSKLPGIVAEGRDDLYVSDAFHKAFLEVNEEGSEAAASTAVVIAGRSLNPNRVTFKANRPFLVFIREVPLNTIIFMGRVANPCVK
Method: Human FXa (Enzyme Research Laboratories, South Bend, Indiana, United States of America) was diluted in phosphate buffered saline (PBS) to 50 U/mL. Antithrombin was diluted to 0.03 mg/mL in PBS with 1 mg/mL of bovine serum albumin (BSA). The chromogenic substrate, S-2765 (Diapharma, Westchester, Ohio, United States of America) was diluted to 1 mg/mL in water. Heparin oligosaccharides were dissolved in PBS at various concentrations (7 to 3600 ng/mL). A reaction mixture including 60 μL of antithrombin and 24 μL of a solution containing a heparin oligosaccharide was incubated at room temperature for 3 min. FXa (100 μL) was then added, which was followed after a 2 min incubation at room temperature by the addition of 30 μL of chromogenic substrate, S-2765. The absorbance of the mixture was measured at 405 nm for 5 min and plotted against reaction time. The initial reaction rate as a function of oligosaccharide concentration was used to calculate IC50.

bovine FXa = target: T2, bovine FXa; experiment: ACTICHROME heparin activity assay, FXa inhibition with human antithrombin; assay type: biochemical; conditions: ACTICHROME kit, read-out: FXa activity, calculated 50% inhibitory concentration (IC50) (converted)
T2 construct: purchased BioMedica Diagnostics
T2 sequence (P01008 33-464): as above
Method: Data shown as mean standard deviation. Briefly, varying concentrations of HR 7-mer, enoxaparin, and fondaparinux were prepared in phosphate-buffered saline (PBS). A total of 5 microliters (μL) of each sample was added to each well, followed by the addition of 40 μL of human antithrombin for 2 minutes (min) at 37 degrees Celsius (° C.). A total of 40 μL of bovine FXa stock solution was then added and incubated for 1 min at 37° C., followed by the addition of 40 μL of chromogenic substrate sold under the tradename SPECTROZYME® FXa (BioMedica Diagnostics, Windsor, Canada). After a 5 min incubation period at 37° C., the reaction was terminated by the addition of 40 μL of glacial acetic acid. Absorbance was measured at 405 nanometers (nm) and results presented as percent inhibition of FXa activity.

tail vein bleeding = experiment: Tail vein transection bleeding time; assay type: in vivo, C57BL/6 mice
Method: The effect of test drug on bleeding time was assessed in a murine tail vein transection model (46). Sterile saline (n=5), HR 7-mer (12 μg/g, n=5) or enoxaparin (4 μg/g, n=7) was administered subcutaneously. Mice were anesthetized with ketamine and xylazine by intraperitoneal injection and placed on a warming mat at 37° C. Either 1 hour or 4 hours after administration of HR 7-mer or enoxaparin, respectively, the lateral tail vein was transected with a number 11 scalpel blade at a tail width of 2.3 mm and immediately submerged in PBS at 37° C. The bleeding time was determined at that instant when bleeding had ceased for 30 seconds. Animals were excluded if arterial bleeding was present.

[1] = system: non-occlusive venous thrombosis; experiment: Murine model of non-occlusive venous thrombosis (electrolytic injury of the inferior vena cava); assay type: in vivo, C57BL/6 mice
Method: Heparin-based drug efficacy was evaluated in a preclinical mouse model of non-occlusive venous thrombosis (46). HR 7-mer was administered subcutaneously (12 μg/g, n=5) to male C57BL/6 mice (8-12 weeks of age) 1 hour prior to electrolytic injury and 24 hours after injury. Enoxaparin was administered subcutaneously (4 μg/g, n=5) 4 hours prior and 24 hours after electrolytic injury as a clinically relevant reference and an additional control group enrolled with saline vehicle administered subcutaneously (n=6). […] Venous side branches were ligated or cauterized, while posterior branches were left patent. A 25-gauge stainless steel needle, attached to a silver-coated copper wire was inserted into the exposed caudal vena cava and positioned against the anterior wall (anode). A second wire was implanted subcutaneously to complete the circuit (cathode) and a 250 μAmps current applied for 15 min. Subsequently, the needle was removed and a cotton swab held in gentle contact with the puncture site to prevent bleeding. The vena cava and associated thrombus, immediately below the renal veins to just above the bifurcation, was excised 48 hours after injury for determination of wet thrombus weight.

Recombinant heparanase = target: T3, Recombinant heparanase (Homo sapiens, UniProt Q9Y251); experiment: Incubation of heparin oligosaccharides with recombinant heparanase, HPLC and LC-MS analysis; assay type: in vitro ADME; conditions: overnight incubation with heparanase, 37° C., pH 6.0
T3 construct: made in house; host or cells: insect cells (baculovirus expression system)
T3 sequence (Q9Y251 158-543 limits assumed): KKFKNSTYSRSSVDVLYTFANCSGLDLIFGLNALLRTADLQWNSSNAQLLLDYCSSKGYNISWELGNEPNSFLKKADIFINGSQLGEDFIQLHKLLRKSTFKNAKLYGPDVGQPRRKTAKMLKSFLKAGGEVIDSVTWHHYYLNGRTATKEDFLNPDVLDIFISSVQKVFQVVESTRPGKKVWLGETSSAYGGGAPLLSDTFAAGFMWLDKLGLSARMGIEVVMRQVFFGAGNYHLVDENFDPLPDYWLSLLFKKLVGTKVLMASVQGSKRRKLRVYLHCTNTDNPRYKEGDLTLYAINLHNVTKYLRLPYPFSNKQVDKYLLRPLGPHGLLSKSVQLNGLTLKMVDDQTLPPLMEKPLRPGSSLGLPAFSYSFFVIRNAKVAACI
T3 sequence (Q9Y251 36-109 limits assumed): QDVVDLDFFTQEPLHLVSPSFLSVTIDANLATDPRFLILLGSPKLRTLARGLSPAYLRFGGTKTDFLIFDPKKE
Method: Recombinant heparanase was expressed in insect cells using the baculovirus expression system and purified by a heparin-Sepharose column, as previously described (40). Heparin oligosaccharides, HS 6-mer (20 μg) or HR 7-mer (20 μg), were incubated overnight at 37° C. in 250 μL of MES (50 mM, pH 6.0) in the presence of heparanase (2 μg for 1× heparanase digestion, or 20 μg for 10× heparanase digestion).
High performance liquid chromatography (HPLC) analysis was conducted with a strong anion exchange column (Propac™ PA1 column, 10 μm, 9 mm×250 mm, Thermo Fisher, Waltham, MA) using a Shimadzu Prominence UFLC20A system (Shimadzu Corporation, Columbia, MD) with a UV detector set at 310 nm. A linear gradient was used for analytical purposes and included a solvent A: 20 mM NaAcO (pH 5.0); and solvent B: 2 M NaCl with 20 mM NaAcO (pH 5.0): 0-3 min: 0-80% B, 3.1-23 min: 80-100% B at a flow rate of 2 mL/min. A total of 5-10 μg of oligosaccharides was injected per run.
LC-MS/MS analysis of heparanse digested oligosaccharides was implemented on a Vanquish Flex UHPLC system (Thermo Fisher, Waltham, MA) coupled with a TSQ Fortis triple-quadrupole mass spectrometer. The ACQUITY Glycan BEH Amide column ([…], 2.1×150 mm; Waters) was used at 60° C. The mobile phase A was 50 mM ammonium formate in water (pH 4.4) and mobile phase B was acetonitrile. […]

SMILES	anti-FXa activity after incubation with heparanase (Human FXa (Homo sapiens))	IC50 (Human FXa (Homo sapiens))	IC50 (bovine FXa) [nM]	bleeding time (tail vein bleeding; enoxaparin 4 μg/g SC, 4 hours, HR 7-mer 12 μg/g SC, 1 hour, saline vehicle 81±3 sec) [s]	Avg. bleeding time (tail vein bleeding; enoxaparin 4 μg/g, 4 hr pre, SC, HR 7-mer 12 μg/g, 1 hr pre) [s]	reduction in thrombus formation as compared to saline vehicle ([1]; 48 hours after injury, HR 7-mer 12 μg/g SC 1 hour prior and 24 hours after, enoxaparin 4 μg/g SC 4 hours prior and 24 hours after) [%]	Avg. IVC weight ([1]; wet thrombus weight 48 hours after injury, enoxaparin 4 μg/g, 4 hr pre, SC, HR 7-mer 12 μg/g, 1 hr pre, SC) [mg]	susceptibility to heparanase mediated degradation (HPLC, LC-MS) (Recombinant heparanase)
O=C(O)C1OC(Oc2ccc([N+](=O)[O-])cc2)C(O)C(O)C1OC1OC(COS(=O)(=O)O)C(OC2OC(C(=O)O)C(OC3OC(COS(=O)(=O)O)C(OC4OC(C(=O)O)C(OC5OC(COS(=O)(=O)O)C(O)C(O)C5NS(=O)(=O)O)C(O)C4OS(=O)(=O)O)C(OS(=O)(=O)O)C3NS(=O)(=O)O)C(O)C2OS(=O)(=O)O)C(O)C1NS(=O)(=O)O (stereo not drawn) [Compound 6-mer-D]	preservation of anti-FXa activity	193 nM						
O=C(O)C1OC(OC2C(COS(=O)(=O)O)OC(OC3C(C(=O)O)OC(OC4C(COS(=O)(=O)O)OC(OC5C(C(=O)O)OC(OC6C(COS(=O)(=O)O)OC(OC7C(C(=O)O)OC(Oc8ccc([N+](=O)[O-])cc8)C(O)C7O)C(NS(=O)(=O)O)C6O)C(OS(=O)(=O)O)C5O)C(NS(=O)(=O)O)C4OS(=O)(=O)O)C(OS(=O)(=O)O)C3O)C(NS(=O)(=O)O)C2O)C(O)C(O)C1O (stereo not drawn) [HR 7-mer]		95.7 nM and 96 nM	3870	143 ± 18	143 ± 18	40.3±3.9	18.8 ± 1.2	loss of GlcA
O=C(O)C1OC(OC2C(COS(=O)(=O)O)OC(OC3C(C(=O)O)OC(OC4C(COS(=O)(=O)O)OC(OC5C(C(=O)O)OC(Oc6ccc([N+](=O)[O-])cc6)C(O)C5O)C(NS(=O)(=O)O)C4O)C(OS(=O)(=O)O)C3O)C(NS(=O)(=O)O)C2OS(=O)(=O)O)C(O)C(O)C1OC1OC(COS(=O)(=O)O)C(O)C(O)C1NS(=O)(=O)O (stereo not drawn) [HS 6-mer, reference compound]	completely lost	21.2 nM and 21 nM						cleavage of the -[GlcA-GlcNS3S6S]- disaccharide to afford a tetrasaccharide (4-mer-D)
